In US9464093B2, “Substituted imidazo[4',5':4,5]cyclopenta[1,2-e]pyrrolo[1,2-a]pyrazines and oxazolo[4',5':4,5]cyclopenta[1,2-e]pyrrolo[1,2-a]pyrazines for treating brain cancer” (Mayo Foundation for Medical Education and Research, priority 2012, dated 2016) one finds IC50 data, which are given here for nine compounds.

Where two headings read alike, the source gives them in different places.

For series [1], the system named is DU145 prostate cancer cells. Kind of series: Cytotoxicity, MTT method, DU145. Conditions: read-out: Cytotoxicity (IC50, μM) DU145.
Description: The cell suspension in the culture medium was plated into each well of 96-well plates (10,000 cells/well/100 μL). After 24 h, testing compounds were added, and then the plates were incubated for an additional 24 h in a humidified atmosphere of 5% CO2 at 37° C. […] The IC50 value was determined by linear interpolation from the growth inhibition curve.
The subject of series [2] is MB-468 (triple-negative breast cancer cells). Nature of the series: Cytotoxicity, cell count, MB-468 (Example 4). To be noted: read-out: Cytotoxicity (IC50, μM) MB-468.
Description: (§1) Raji cells and MB-468 cells were purchased from American Tissue Culture (Manassas, Va.). […] Cells were harvested and counted on the third day in a Coulter Particle Counter (Beckman-Coulter Corp.: Brea, Calif.). IC50 values were calculated using GraphPad Prism 5 (GraphPad Software Inc., La Jolla, Calif.).
In series [3] the test system is Raji B cells (Burkitt's lymphoma cells). Nature of the series: Cytotoxicity, cell count, Raji (Example 4). To be noted: read-out: Cytotoxicity (IC50, μM) Raji.
Description: as §1

Usually IC50 stands for the concentration at which inhibition is half-maximal. For `COc1ccc(CN2C(=O)N[C@H]3[C@@H]4NC(=O)c5ccc(Br)n5[C@@H]4C[C@]32O)cc1` [N-PMBAA, N-p-methoxybenzyl agelastatin A], the IC50 in series [1] (Homo sapiens, DU-145, 24 h) was greater than 10 µM.
Turning to `CNC(=O)N[C@H]1[C@@H]2NC(=O)c3ccc(Br)n3[C@@H]2C[C@H]1O` [UAA, ureaagelastaitin A], the 50% inhibitory concentration (IC50) in series [2] is greater than 10 µM; in series [3] (Homo sapiens, Raji) it was greater than 10 µM.
In the case of `CN1C(=O)N[C@H]2[C@@H]3NC(=O)c4ccc(-c5ccccc5)n4[C@@H]3C[C@]21O` [PAA, phenylagelastatin A], the IC50 in series [2] was found to be 1.5 µM; in series [1] (Homo sapiens, DU-145, 24 h), 6 µM; in series [3] (Homo sapiens, Raji) it was 3.8 µM.
`CN1C(=O)N[C@H]2[C@@H]3NC(=O)c4ccc(-c5ccc(N)cc5)n4[C@@H]3C[C@]21O` [APAA, p-aminophenylagelastatin A]: the IC50 in series [1] (Homo sapiens, DU-145, 24 h) is greater than 10 µM.
Regarding debromoagelastatin A [DeBAA], the IC50 was 3 µM in series [2] (cells counted on the third day); greater than 10 µM in series [1] (MTT, 24 h incubation); 3.16 µM in series [3] (cells counted on the third day).
As for `CN1C(=O)N[C@@H]2[C@H]3NC(=O)c4ccc(Br)n4[C@H]3C[C@@]21O` [ent-AA], the IC50 in series [1] (MTT, 24 h incubation) was greater than 10 µM.
As for `CCN1C(=O)N[C@H]2[C@@H]3NC(=O)c4cccn4[C@@H]3C[C@]21O` [DeBEAA, debromoethylagelastatin A], the IC50 in series [1] (Homo sapiens, DU-145, 24 h) was greater than 10 µM.
For `CCN1C(=O)N[C@H]2[C@@H]3NC(=O)c4ccc(Br)n4[C@@H]3C[C@]21O` [EAA, ethylagelastatin A], in series [1] (Homo sapiens, DU-145, 24 h), the IC50 is greater than 10 µM.
With `CN1C(=O)N[C@H]2[C@@H]3NC(=O)c4ccc(C5CC5)n4[C@@H]3C[C@]21O` [CPAA, cyclopropylagelastatin A], the IC50 in series [2] came to 1 µM; in series [1] (Homo sapiens, DU-145, 24 h) it was 5 µM; in series [3] (Homo sapiens, Raji), 0.4 µM.
